Measured values reported in the supplement of paper PMC10307832.

Experiments:
Experiment in all cases: relative viability (nuclei count vs DMSO), 5 days (fraction); higher = more cells survive
Ruxolitinib + Trametinib = compound: N#CC[C@H](C1CCCC1)n1cc(-c2ncnc3[nH]ccc23)cn1 [Ruxolitinib] + CC(=O)Nc1cccc(-n2c(=O)n(C3CC3)c(=O)c3c(Nc4ccc(I)cc4F)n(C)c(=O)c(C)c32)c1 [Trametinib] (partner 0.02 µM)
Method in brief: (§1)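 Lung cancer cell lines in 1536-well plates got either a single drug or a fixed anchor-drug dose together with five library-drug doses (not always all listed) in √10 steps, by pin tool, on the day after seeding. Nuclei were counted after 5 days, and relative viability is the treated-to-vehicle ratio of nuclei counts. Values are medians of duplicate plates.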

VE-821 + Navitoclax = compound: CS(=O)(=O)c1ccc(-c2cnc(N)c(C(=O)Nc3ccccc3)n2)cc1 [VE-821] + CC1(C)CCC(c2ccc(Cl)cc2)=C(CN2CCN(c3ccc(C(=O)NS(=O)(=O)c4ccc(N[C@H](CCN5CCOCC5)CSc5ccccc5)c(S(=O)(=O)C(F)(F)F)c4)cc3)CC2)C1 [Navitoclax] (partner 0.5 µM)
Method in brief: as §1

Ruxolitinib + Linsitinib = compound: N#CC[C@H](C1CCCC1)n1cc(-c2ncnc3[nH]ccc23)cn1 [Ruxolitinib] + C[C@]1(O)C[C@@H](c2nc(-c3ccc4ccc(-c5ccccc5)nc4c3)c3c(N)nccn32)C1 [Linsitinib] (partner 1 µM)
Method in brief: as §1

Vismodegib + OSI-027 = compound: CS(=O)(=O)c1ccc(C(=O)Nc2ccc(Cl)c(-c3ccccn3)c2)c(Cl)c1 [Vismodegib] + COc1cccc2cc(-c3nc([C@H]4CC[C@H](C(=O)O)CC4)n4ncnc(N)c34)[nH]c12 [OSI-027] (partner 0.5 µM)
Method in brief: as §1

| Cell Line | relative viability (Ruxolitinib + Trametinib; first compound 0.08 µM) | relative viability (Ruxolitinib + Trametinib; first compound 0.253 µM) | relative viability (Ruxolitinib + Trametinib; first compound 0.8 µM) | relative viability (Ruxolitinib + Trametinib; first compound 2.53 µM) | relative viability (Ruxolitinib + Trametinib; first compound 8 µM) | relative viability (VE-821 + Navitoclax; first compound 0.08 µM) | relative viability (VE-821 + Navitoclax; first compound 0.253 µM) | relative viability (VE-821 + Navitoclax; first compound 0.8 µM) | relative viability (VE-821 + Navitoclax; first compound 2.53 µM) | relative viability (VE-821 + Navitoclax; first compound 8 µM) | relative viability (Ruxolitinib + Linsitinib; first compound 0.08 µM) | relative viability (Ruxolitinib + Linsitinib; first compound 0.253 µM) | relative viability (Ruxolitinib + Linsitinib; first compound 0.8 µM) | relative viability (Ruxolitinib + Linsitinib; first compound 2.53 µM) | relative viability (Ruxolitinib + Linsitinib; first compound 8 µM) | relative viability (Vismodegib + OSI-027; first compound 0.08 µM) | relative viability (Vismodegib + OSI-027; first compound 0.253 µM) | relative viability (Vismodegib + OSI-027; first compound 0.8 µM) | relative viability (Vismodegib + OSI-027; first compound 2.53 µM) | relative viability (Vismodegib + OSI-027; first compound 8 µM) |
| --- | --- | --- | --- | --- | --- | --- | --- | --- | --- | --- | --- | --- | --- | --- | --- | --- | --- | --- | --- | --- |
| NCI-H1734 | 0.66 | 0.647 | 0.635 | 0.462 | 0.607 | 1.03 | 0.875 | 0.79 | 0.862 | 0.63 | 0.852 | 0.752 | 0.794 | 0.8 | 0.821 | 0.603 | 0.598 | 0.727 | 0.577 | 0.605 |
| NCI-H1651 | 0.722 | 0.798 | 0.821 | 0.767 | 0.859 | 0.97 | 0.941 | 0.949 | 1.02 | 0.864 | 0.949 | 0.864 | 1 | 0.929 | 0.964 | 0.658 | 0.774 | 0.543 | 0.771 | 0.703 |
| NCI-H1975 | 0.277 | 0.432 | 0.412 | 0.269 | 0.152 | 1 | 1.11 | 0.899 | 1.02 | 0.652 | 1.03 | 1.03 | 1.05 | 0.71 | 0.587 | 0.724 | 0.633 | 0.686 | 0.632 | 0.607 |
| NCI-H1437 | 0.528 | 0.632 | 0.732 | 0.564 | 0.455 | 1.17 | 1.11 | 1.01 | 1.12 | 1.04 | 0.983 | 0.994 | 1.02 | 0.966 | 0.653 | 0.884 | 0.805 | 0.905 | 0.858 | 0.804 |
| HOP-62 | 0.414 | 0.398 | 0.476 | 0.188 | 0.37 | 1.22 | 0.91 | 1.16 | 1.17 | 1.12 |  | 0.995 | 1.05 | 0.991 | 0.867 | 0.841 | 0.812 | 0.793 | 0.8 | 0.899 |
| NCI-H2405 | 0.674 | 0.66 | 0.725 | 0.428 | 0.398 | 0.873 | 0.888 | 0.762 | 0.942 | 0.751 |  | 0.779 | 1.1 | 0.528 | 0.632 | 0.621 | 0.615 | 0.573 | 0.621 | 0.639 |
| SK-MES-1 | 0.561 | 0.596 | 0.587 | 0.315 | 0.516 | 1.3 | 1.23 | 1.24 | 1.21 | 1.26 | 1.15 | 1.02 | 1.04 | 0.866 | 0.622 | 0.729 | 0.576 | 0.598 | 0.59 | 0.577 |
| LC-2-ad | 0.879 | 0.896 | 0.878 | 0.663 | 0.577 | 0.587 | 0.413 | 0.566 | 0.622 | 0.291 | 0.741 | 0.86 | 0.814 | 0.68 | 0.496 | 0.975 | 0.786 | 0.824 | 0.809 | 0.676 |
| NCI-H1944 | 0.391 | 0.386 | 0.422 | 0.304 | 0.369 | 1.16 | 0.997 | 0.92 | 1.1 | 0.643 | 1.23 | 1.12 | 1.28 | 1.15 | 1.21 | 0.413 | 0.391 | 0.422 | 0.388 | 0.442 |
| NCI-H322M | 0.523 | 0.628 | 0.514 | 0.609 | 0.893 | 1.24 |  | 1.39 | 1.38 | 1.08 | 1.05 | 0.9 | 0.997 | 0.91 | 1.17 | 0.677 | 0.522 | 0.486 | 0.525 | 0.537 |
| HCC-366 | 0.33 | 0.319 | 0.432 | 0.239 | 0.231 | 1.34 | 1.02 | 0.925 | 1.02 | 0.0801 | 0.595 | 0.401 | 0.647 | 0.535 | 0.541 | 1.32 | 0.888 | 0.77 | 0.929 | 0.775 |
| HCC-78 | 0.679 | 0.7 | 0.609 | 0.45 | 0.517 | 0.831 | 0.783 | 0.707 | 1.04 | 0.654 | 0.419 | 0.296 | 0.437 | 0.372 | 0.414 | 0.372 | 0.371 | 0.382 | 0.347 | 0.347 |
| CAL-12T | 0.341 | 0.375 | 0.376 | 0.241 | 0.31 | 1.21 | 1.26 | 1.22 | 1.05 | 1.1 | 0.819 | 0.744 | 0.853 | 0.614 | 0.7 | 0.776 | 0.462 | 0.774 | 0.636 | 0.654 |
| NCI-H2228 | 0.229 | 0.861 | 0.62 | 0.24 | 0.144 | 0.943 | 1.01 | 0.811 | 0.842 | 0.741 | 0.796 | 0.686 | 0.85 | 0.626 | 0.559 | 0.7 | 0.636 | 0.587 | 0.532 | 0.467 |
| EKVX |  | 0.318 | 0.348 | 0.265 | 0.361 | 1.17 | 0.975 | 0.632 | 1.01 | 0.907 | 0.876 | 0.897 | 0.966 | 0.893 | 0.813 | 0.677 | 0.67 | 0.676 | 0.715 | 0.731 |
| HARA | 0.639 | 0.622 | 1.07 | 0.269 | 0.775 | 1.23 | 1.13 | 1.09 | 1.15 | 0.99 | 0.983 | 1.01 | 1.03 | 0.912 | 0.815 | 0.702 | 0.47 | 0.529 | 0.492 | 0.466 |
